How the values were obtained:
Test in all cases: greenhouse pre-emergence herbicidal test
Format in all cases: in vivo
Conditions in all cases: 250 g/ha, scale 0 to 100
Amaranthus retroflexus = tested on: Amaranthus retroflexus
Description: (§1) The culture containers used were plastic flowerpots containing loamy sand with approximately 3.0% of humus as the substrate. The seeds of the test plants were sown separately for each species.
(§2) For the pre-emergence treatment, the active ingredients, which had been suspended or emulsified in water, were applied directly after sowing by means of finely distributing nozzles. The containers were irrigated gently to promote germination and growth and subsequently covered with transparent plastic hoods until the plants had rooted. This cover caused uniform germination of the test plants, unless this had been impaired by the active ingredients.
(§3) Depending on the species, the plants were kept at 10-25° C. or 20-35° C., respectively.
(§4) The test period extended over 2 to 4 weeks. During this time, the plants were tended, and their response to the individual treatments was evaluated.
(§5) Evaluation was carried out using a scale from 0 to 100. 100 means no emergence of the plants, or complete destruction of at least the aerial moieties, and 0 means no damage, or normal course of growth. A moderate herbicidal activity is given at values of at least 60, a good herbicidal activity is given at values of at least 70, and a very good herbicidal activity is given at values of at least 85.

Echinocloa crus-galli = tested on: Echinocloa crus-galli
Description: as §1, §2, §3, §4, §5

Abutilon theophrasti = tested on: Abutilon theophrasti
Description: (§6) The culture containers used were plastic flowerpots containing loamy sand with approximately 3.0% of humus as the substrate. The seeds of the test plants were sown separately for each species. For the pre-emergence treatment, the active ingredients, which had been suspended or emulsified in water, were applied directly after sowing by means of finely distributing nozzles. The containers were irrigated gently to promote germination and growth and subsequently covered with transparent plastic hoods until the plants had rooted. This cover caused uniform germination of the test plants, unless this had been impaired by the active ingredients. […] The test period extended over 2 to 4 weeks. During this time, the plants were tended, and their response to the individual treatments was evaluated. Evaluation was carried out using a scale from 0 to 100. 100 means no emergence of the plants, or complete destruction of at least the aerial moieties, and 0 means no damage, or normal course of growth.

Setaria faberi = tested on: Setaria faberi
Description: as §6

Alopercurus myosuroides = tested on: Alopercurus myosuroides
Description: as §1, §2, §3, §4, §5

| Structure (SMILES) | herbicidal activity (Amaranthus retroflexus) [%] | herbicidal activity (Echinocloa crus-galli) [%] | herbicidal activity (Abutilon theophrasti) [%] | herbicidal activity (Setaria faberi) [%] | herbicidal activity (Alopercurus myosuroides) [%] |
| --- | --- | --- | --- | --- | --- |
| COc1ccccc1COc1c(F)ccc(F)c1Nc1nc(N)nc(C(C)(C)F)n1 [Example 173] | 100 | 100 | 100 |  |  |
| CC(C)(F)c1nc(N)nc(Nc2c(F)ccc(F)c2OCc2ccccc2F)n1 [Example 172] |  | 100 | 100 | 100 |  |
| CC(C)(F)c1nc(N)nc(Nc2c(F)cccc2OCc2ccccc2)n1 [Example 257] |  |  | 100 |  |  |
| COC(C)c1nc(N)nc(Nc2c(F)c(F)cc(F)c2OCc2ccccc2Cl)n1 (centres unmarked) [Example 243] |  | 85 | 85 | 85 |  |
| CC(C)(C)c1nc(N)nc(Nc2c(F)c(F)cc(F)c2OCc2ccccc2)n1 [Example 200] |  | 100 | 100 | 100 |  |
| CC(C)(F)c1nc(N)nc(Nc2c(F)cccc2OCc2ccccc2F)n1 [Example 27] |  | 100 | 100 | 100 |  |
| COC(C)(C)c1nc(N)nc(Nc2c(F)c(F)cc(F)c2OCc2ccc(F)cc2)n1 [Example 250] | 100 | 100 | 100 |  |  |
| COc1ccccc1COc1cccc(F)c1Nc1nc(N)nc(C(C)(C)F)n1 [Example 100] | 100 | 100 | 80 |  |  |
| CC(C)(Cl)c1nc(N)nc(Nc2c(F)c(F)cc(F)c2OCc2ccccc2)n1 [Example 246] | 100 | 100 | 100 |  |  |
| COC(C)(C)c1nc(N)nc(Nc2c(F)c(F)cc(F)c2OCc2ccccc2F)n1 [Example 248] | 100 | 100 | 100 |  |  |
| Cc1ccc(COc2c(F)cc(F)c(F)c2Nc2nc(N)nc(C(C)(C)F)n2)cc1 [Example 183] |  | 100 | 100 | 100 |  |
| CCCC(F)c1nc(N)nc(Nc2c(F)cccc2OCc2ccccc2)n1 (centres unmarked) [Example 77] |  | 100 | 80 | 100 |  |
| CC(C)(F)c1nc(N)nc(Nc2c(C#N)cccc2OCc2ccccc2)n1 [Example 128] | 100 |  | 90 | 90 |  |
| Cc1c(F)cccc1COc1cccc(F)c1Nc1nc(N)nc(C(C)(C)F)n1 [Example 102] |  | 100 | 85 | 100 |  |
| COc1ccccc1COc1ccc(F)c(F)c1Nc1nc(N)nc(C(C)(C)F)n1 [Example 198] |  | 100 | 98 | 100 |  |
| Nc1nc(Nc2c(F)cccc2OCc2ccccc2)nc(C(F)C2CCCC2)n1 (centres unmarked) [Example 202] |  | 80 | 80 | 85 |  |
| Cc1ccc(COc2c(F)ccc(F)c2Nc2nc(N)nc(C(C)(C)F)n2)cc1 [Example 141] |  | 100 | 98 | 100 |  |
| CC(C)(F)c1nc(N)nc(Nc2c(F)cccc2OCc2cccc(Br)c2)n1 [Example 44] |  |  | 70 | 70 |  |
| COc1cccc(COc2cccc(F)c2Nc2nc(N)nc(C(C)(C)F)n2)c1 [Example 10] | 100 | 100 |  | 100 | 100 |
| COC(C)(C)c1nc(N)nc(Nc2c(F)c(F)cc(F)c2OCc2ccccc2Cl)n1 [Example 251] |  | 95 | 98 | 100 |  |
| COC(C)(C)c1nc(N)nc(Nc2c(F)c(F)cc(F)c2OCc2cccc(F)c2)n1 [Example 249] |  | 100 | 100 | 100 |  |
| Nc1nc(Nc2c(F)cccc2OCc2ccccc2)nc(C2(F)CCCCC2)n1 [Example 31] | 75 | 100 | 85 |  |  |

| Structure (SMILES) | herbicidal activity (Amaranthus retroflexus) [%] | herbicidal activity (Echinocloa crus-galli) [%] | herbicidal activity (Abutilon theophrasti) [%] | herbicidal activity (Setaria faberi) [%] | herbicidal activity (Alopercurus myosuroides) [%] |
| --- | --- | --- | --- | --- | --- |
| CC(C)(F)c1nc(N)nc(Nc2c(F)cccc2OCc2cc(F)cc(F)c2)n1 [Example 43] | 100 | 100 | 100 |  |  |
| CC(C)c1nc(N)nc(Nc2c(F)c(F)cc(F)c2OCc2ccccc2)n1 [Example 254] |  | 100 | 100 | 100 |  |
| CC(C)(F)c1nc(N)nc(Nc2c(OCc3ccccc3)cc(F)c(F)c2F)n1 [Example 69] | 100 | 100 |  | 100 | 100 |
| CC(C)(F)c1nc(N)nc(Nc2c(F)c(F)cc(F)c2OCc2cccc(Cl)c2)n1 [Example 217] |  | 100 | 98 | 100 |  |
| COCc1cccc(COc2c(F)cc(F)c(F)c2Nc2nc(N)nc(C(C)(C)F)n2)c1 [Example 219] |  | 85 | 100 | 100 |  |
| Cc1cccc(COc2cccc(F)c2Nc2nc(N)nc(C(C)(C)F)n2)c1 [Example 26] |  | 80 | 85 | 70 |  |
| CC(C)(F)c1nc(N)nc(Nc2c(F)c(F)cc(Br)c2OCc2ccccc2)n1 [Example 222] |  | 100 | 98 | 100 |  |
| CC(C)(F)c1nc(N)nc(Nc2c(F)ccc(Br)c2OCc2ccccc2)n1 [Example 223] |  | 95 | 100 | 100 |  |
| Cc1ccc(COc2cccc(F)c2Nc2nc(N)nc(C(C)(C)F)n2)cc1 [Example 9] | 95 | 100 |  | 100 | 80 |
| CC(C)(F)c1nc(N)nc(Nc2c(F)cccc2OCc2nc(C3CC3)no2)n1 [Example 42] | 100 |  | 80 |  |  |
| CC(C)c1ccccc1COc1c(F)cc(F)c(F)c1Nc1nc(N)nc(C(C)(C)F)n1 [Example 208] | 80 |  | 90 |  |  |
| CC(C)(F)c1nc(N)nc(Nc2c(F)cccc2OCc2cccc(Cl)c2)n1 [Example 47] | 100 | 80 | 100 |  |  |
| COCc1ccccc1COc1c(F)cc(F)c(F)c1Nc1nc(N)nc(C(C)(C)F)n1 [Example 224] |  | 90 | 100 | 100 |  |
| CC(C)(F)c1nc(N)nc(Nc2c(F)cccc2OCc2cccc(F)c2)n1 [Example 11] | 100 | 100 |  | 100 | 100 |
| CC(C)(F)c1nc(N)nc(Nc2c(F)c(F)cc(F)c2OCc2ccccc2Br)n1 [Example 232] |  | 100 | 100 | 100 |  |
| CC(C)(F)c1nc(N)nc(Nc2c(F)cccc2OCc2ncco2)n1 [Example 70] | 100 | 100 | 100 |  |  |
| CC(F)(F)c1nc(N)nc(Nc2c(F)cccc2OCc2ccccc2)n1 [Example 96] | 100 | 100 |  | 95 | 80 |
| CC(C)(F)c1nc(N)nc(Nc2c(F)cccc2OC(F)(F)c2cccc(F)c2)n1 [Example 130] |  | 100 | 100 | 100 |  |
| Cc1ccc(F)c(Nc2nc(N)nc(C(C)(C)F)n2)c1OCc1ccccc1 [Example 175] |  | 100 | 85 | 95 |  |
| COC(C)(C)c1nc(N)nc(Nc2c(F)cccc2OCc2ccccc2)n1 [Example 91] | 100 | 100 |  | 100 | 100 |
| Nc1nc(Nc2c(F)cccc2OCc2ccccc2)nc(C2(F)CCCC2)n1 [Example 5] | 98 | 100 |  | 98 | 85 |
| CC(C)(F)c1nc(N)nc(Nc2c(F)c(F)cc(F)c2OCc2ccc(Cl)cc2)n1 [Example 207] |  | 100 | 90 | 100 |  |

Source: US11992012B2, “Diaminotriazine compounds” (BASF SE, priority 2018, dated 2024)
